Data set [1] concerns rat. As to conditions: Subchronic oral toxicity in rodents, fischer, Dermal, Topical, dose end: 13 week, group: systemic.
Data set [2] deals with mouse. Particulars: Prenatal developmental toxicity study, cd1, Injection, Intravenous, dose end: 12 GD.
Data set [3] concerns rat. As to conditions: Combined chronic toxicity/carcinogenicity; fischer; Dermal; Topical; dose end: 2 year; group: systemic; systemic / pathology microscopic / pituitary gland / adenoma.
The subject of data set [4] is mouse. Particulars: Carcinogenicity, b6c3f1, Dermal, Topical, dose end: 2 year, group: systemic.
The subject of data set [5] is mouse. Particulars: Subchronic oral toxicity in rodents, b6c3f1, Gavage/Intubation, dose end: 13 week, group: systemic.
Data set [6] relates to mouse. Particulars: Combined chronic toxicity/carcinogenicity, b6c3f1, Oral, Gavage/Intubation, dose end: 2 year, group: systemic.
Data set [7] concerns rat. Particulars: Combined chronic toxicity/carcinogenicity; fischer; Oral; Gavage/Intubation; dose end: 2 year; group: systemic; systemic / in life observation / body weight / body weight.
Data set [8] has as its system rat. Particulars: Subchronic oral toxicity in rodents, fischer, Gavage/Intubation, dose end: 13 week, group: systemic.
Data set [9] has as its system rat. As to conditions: Subchronic dermal toxicity, sprague dawley, Topical, dose end: 91 day, group: systemic, systemic / in life observation / clinical signs / erythema + systemic / in life observation / clinical signs / scabbing + systemic / in life….
Data set [10] relates to rat. As to conditions: Prenatal developmental toxicity study, sprague dawley, Oral, Gavage/Intubation, dose end: 15 GD.
Data set [11] has as its system rat. Particulars: Prenatal developmental toxicity study, other, Oral, Gavage/Intubation, dose end: 15 GD.
For data set [12], the system named is rat. As to conditions: Subchronic oral toxicity in rodents, fischer, Gavage/Intubation, dose end: 13 week, group: systemic. This is another data set of the same source.
The subject of data set [13] is rat. As to conditions: Combined chronic toxicity/carcinogenicity, fischer, Oral, Gavage/Intubation, dose end: 103 week, group: systemic.
Data set [14] deals with mouse. Particulars: Subchronic oral toxicity in rodents, b6c3f1, Gavage/Intubation, dose end: 13 week, group: systemic, systemic / in life observation / clinical signs / fur (altered appearance) + systemic / in life observation / clinical signs / reduced ….
The subject of data set [15] is mouse. As to conditions: Combined chronic toxicity/carcinogenicity, b6c3f1, Oral, Gavage/Intubation, dose end: 103 week, group: systemic.
Data set [16] has as its system mouse. Particulars: Carcinogenicity; b6c3f1; Oral; Feed; dose end: 103 week; group: systemic; systemic / pathology microscopic / kidney / vacuolization.
Data set [17] has as its system rat. Particulars: Carcinogenicity, fischer, Oral, Feed, dose end: 103 week, group: systemic.
In data set [18] the test system is rat. As to conditions: Subchronic oral toxicity in rodents, fischer, Feed, dose end: 13 week, group: systemic, systemic / in life observation / body weight / body weight gain.
For data set [19], the system named is mouse. As to conditions: Subchronic oral toxicity in rodents, b6c3f1, Feed, dose end: 13 week, group: systemic, systemic / in life observation / body weight / body weight gain.
Data set [20] relates to rat. As to conditions: Carcinogenicity; fischer; Oral; Feed; dose end: 107 week; group: systemic; systemic / in life observation / body weight / body weight.
Data set [21] has as its system mouse. Particulars: Subchronic oral toxicity in rodents, b6c3f1, Feed, dose end: 7 week, group: systemic, systemic / in life observation / body weight / body weight.
Data set [22] relates to mouse. As to conditions: Carcinogenicity; b6c3f1; Oral; Feed; dose end: 108 week; group: systemic; systemic / in life observation / body weight / body weight.
For data set [23], the system named is rat. As to conditions: Subchronic oral toxicity in rodents, fischer, Feed, dose end: 7 week, group: systemic, systemic / in life observation / body weight / body weight.
Setting [24] is: systemic / pathology microscopic / lung / congestion + systemic / pathology microscopic / pancreas / vacuolization + systemic / in life ….
Setting [25] is: group: developmental, developmental / developmental malformation / general / [other] + systemic / in life observation / body weight / fetal weight.
[26] abbreviates: group: developmental, systemic / in life observation / body weight / fetal weight.
[27] abbreviates: group: maternal, reproductive / reproductive performance / resorptions / resorptions + systemic / in life observation / body weight / body weight gain + ….
[28] abbreviates: systemic / in life observation / body weight / body weight + systemic / in life observation / mortality / mortality.
Setting [29] is: systemic / pathology microscopic / kidney / nephropathy.
The mark [30] stands for this setting: systemic / in life observation / body weight / body weight + systemic / pathology microscopic / kidney / nephropathy.
Setting [31] is: systemic / in life observation / body weight / body weight + systemic / pathology microscopic / kidney / nephropathy + systemic / pathology ….
The mark [32] stands for this setting: systemic / in life observation / body weight / body weight.
Setting [33] is: systemic / in life observation / body weight / body weight + systemic / in life observation / clinical signs / alopecia + systemic / in life….
[34] abbreviates: group: maternal, systemic / in life observation / body weight / body weight.
Where [35] appears, read: group: maternal, systemic / in life observation / body weight / body weight + systemic / in life observation / clinical signs / body surface staining + ….
The mark [36] stands for this setting: group: developmental, developmental / developmental malformation / bone / ossification sites + developmental / developmental malformation / bone / full ….
The mark [37] stands for this setting: group: maternal, systemic / in life observation / body weight / body weight + systemic / in life observation / food consumption / food consumption + systemic….
[38] abbreviates: systemic / in life observation / body weight / body weight + systemic / in life observation / clinical signs / fur (altered appearance) + ….
The mark [39] stands for this setting: systemic / pathology microscopic / kidney / casts + systemic / pathology microscopic / kidney / regeneration.
Where [40] appears, read: systemic / pathology microscopic / kidney / hyperplasia + systemic / pathology microscopic / kidney / mineralization.
[41] abbreviates: systemic / pathology microscopic / kidney / hyperplasia + systemic / pathology microscopic / kidney / mineralization + systemic / pathology ….
The mark [42] stands for this setting: systemic / pathology microscopic / liver / cytomegaly + systemic / pathology microscopic / liver / multinucleated.
Where [43] appears, read: systemic / in life observation / body weight / body weight gain + systemic / pathology microscopic / eye / cataract + systemic / pathology ….

The record followed here is EPA's ToxRefDB 2.

As to `OCCCl` [2-Chloroethanol], the lowest observed adverse effect level (LOAEL) (as a rule, the lowest tested level that showed an adverse finding) with rat [1] (systemic / pathology microscopic / lung / congestion + systemic / pathology microscopic / pancreas / vacuolization) was 500 mg/kg/day; in the data set on mouse [2] (setting [25]), > 120 mg/kg/day; with mouse [2] (setting [27]), > 120 mg/kg/day; in the data set on rat [3] it was > 100 mg/kg/day; in the data set on mouse [4] (systemic / pathology microscopic / skin / inflammation + systemic / pathology microscopic / skin / ulcer), 411 mg/kg/day. Moreover, the NEL with rat [1] (setting [24]) was 125 mg/kg/day; in the data set on mouse [2] (setting [26]) it was < 60 mg/kg/day; in the data set on mouse [2] (setting [27]), 60 mg/kg/day; in the data set with rat [3], 50 mg/kg/day; in the data set with mouse [4] (setting [28]), < 180 mg/kg/day. For the same compound, the no-observed-adverse-effect level (NOAEL) (usually the highest tested level that showed no adverse finding) is 250 mg/kg/day in the data set on rat [1] (setting [24]); ≥ 120 mg/kg/day in the data set on mouse [2] (setting [25]); ≥ 120 mg/kg/day in the data set on mouse [2] (setting [27]); ≥ 100 mg/kg/day in the data set on rat [3]; 180 mg/kg/day in the data set on mouse [4] (systemic / pathology microscopic / skin / inflammation + systemic / pathology microscopic / skin / ulcer + systemic / in life observation / …). In addition, the LEL in the data set with rat [1] (systemic / pathology microscopic / pancreas / vacuolization + systemic / in life observation / mortality / mortality) was determined as 250 mg/kg/day; in the data set with mouse [2] (setting [26]), 60 mg/kg/day; with mouse [2] (setting [27]) it was 120 mg/kg/day; in the data set on rat [3] it was 100 mg/kg/day; with mouse [4] (setting [28]) it was 180 mg/kg/day.

Take `CCCCCCc1ccc(O)cc1O` [4-Hexylresorcinol]: the LEL came to 125 mg/kg/day with mouse [5] (setting [29]), 62.5 mg/kg/day in the data set with mouse [6] (setting [31]), 125 mg/kg/day with rat [7] and 125 mg/kg/day in the data set on rat [8] (setting [32]). Besides, the LOAEL in the data set on mouse [5] (setting [29]) is 250 mg/kg/day; in the data set on mouse [6] (setting [30]), 62.5 mg/kg/day; with rat [7] it was 125 mg/kg/day; in the data set on rat [8] (setting [32]) it was 125 mg/kg/day. The NEL in the data set with mouse [5] (systemic / pathology microscopic / kidney / nephropathy + systemic / in life observation / body weight / body weight + systemic / in life …) was 62.5 mg/kg/day; with mouse [6] (setting [31]) it was < 62.5 mg/kg/day; in the data set with rat [7] it was 62.5 mg/kg/day; in the data set with rat [8] (setting [33]), 62.5 mg/kg/day. Besides, the no observed adverse effect level (NOAEL) was 125 mg/kg/day with mouse [5] (systemic / pathology microscopic / kidney / nephropathy + systemic / in life observation / mortality / mortality), < 62.5 mg/kg/day in the data set on mouse [6] (setting [30]), 62.5 mg/kg/day in the data set with rat [7] and 62.5 mg/kg/day with rat [8] (setting [33]).

For `Cc1cc(C)n(CO)n1` [(3,5-Dimethyl-1H-pyrazol-1-yl)methanol], the LEL in the data set on rat [9] stood at 50 mg/kg/day; in the data set with rat [10] (setting [26]) it was 400 mg/kg/day; in the data set on rat [10] (setting [35]) it was 100 mg/kg/day; with rat [11] (setting [36]), 150 mg/kg/day; in the data set with rat [11] (setting [37]) it was 150 mg/kg/day. The LOAEL in the data set on rat [9] turned out to be 50 mg/kg/day; in the data set with rat [10] (setting [26]), 400 mg/kg/day; in the data set on rat [10] (setting [34]), 100 mg/kg/day; in the data set with rat [11] (setting [36]), 150 mg/kg/day; in the data set on rat [11] (group: maternal, systemic / in life observation / body weight / body weight + systemic / in life observation / food consumption / food consumption) it was 150 mg/kg/day. Further, the NEL in the data set with rat [9] is < 50 mg/kg/day; in the data set on rat [10] (setting [26]), 200 mg/kg/day; in the data set on rat [10] (setting [35]), < 100 mg/kg/day; in the data set on rat [11] (setting [36]) it was 75 mg/kg/day; in the data set with rat [11] (setting [37]), 75 mg/kg/day. Also, the NOAEL with rat [9] is < 50 mg/kg/day; with rat [10] (setting [26]), 200 mg/kg/day; in the data set with rat [10] (setting [34]), < 100 mg/kg/day; with rat [11] (setting [36]), 75 mg/kg/day; with rat [11] (setting [37]), 75 mg/kg/day.

In the case of `C=C(C)[C@H]1CC=C(C)CC1` [D-Limonene], the LOAEL in the data set with rat [12] (setting [38]) was > 2400 mg/kg/day; in the data set on rat [13] (setting [40]), 75 mg/kg/day; with mouse [14], > 2000 mg/kg/day; in the data set on mouse [15] (setting [32]), 1000 mg/kg/day. In addition, the no observed adverse effect level (NOAEL) was ≥ 2400 mg/kg/day in the data set with rat [12] (setting [38]), < 75 mg/kg/day with rat [13] (setting [40]), ≥ 2000 mg/kg/day in the data set on mouse [14] and 500 mg/kg/day in the data set on mouse [15] (setting [32]). Also, the LEL in the data set with rat [12] (setting [39]) came to 150 mg/kg/day; in the data set on rat [13] (setting [41]) it was 75 mg/kg/day; with mouse [14] it was 1000 mg/kg/day; in the data set on mouse [15] (setting [42]), 500 mg/kg/day. For the same compound, the NEL in the data set with rat [12] (setting [39]) was < 150 mg/kg/day; with rat [13] (setting [41]), < 75 mg/kg/day; in the data set with mouse [14], 500 mg/kg/day; with mouse [15] (setting [42]) it was 250 mg/kg/day.

Take `OC[C@@H](O)[C@@H](O)[C@H](O)[C@H](O)CO` [D-Mannitol]: the LEL is 3750 mg/kg/day in the data set on mouse [16], 1250 mg/kg/day in the data set on rat [17] (setting [43]), 2500 mg/kg/day in the data set with rat [18] and > 7500 mg/kg/day in the data set with mouse [19]. Also, the lowest-observed-adverse-effect level (LOAEL) in the data set on mouse [16] is 3750 mg/kg/day; in the data set on rat [17] (systemic / in life observation / body weight / body weight gain), 2500 mg/kg/day; in the data set with rat [18], 2500 mg/kg/day; in the data set on mouse [19] it was > 7500 mg/kg/day. Moreover, the NEL with mouse [16] is < 3750 mg/kg/day; with rat [17] (setting [43]) it was < 1250 mg/kg/day; in the data set with rat [18], 1250 mg/kg/day; in the data set on mouse [19], ≥ 7500 mg/kg/day. Besides, the NOAEL is < 3750 mg/kg/day in the data set on mouse [16], 1250 mg/kg/day in the data set with rat [17] (setting [43]), 1250 mg/kg/day with rat [18] and ≥ 7500 mg/kg/day in the data set on mouse [19].

Turning to `CCN(CC)C(=S)SSC(=S)N(CC)CC` [Disulfiram], the LEL in the data set on rat [20] amounted to 15 mg/kg/day; with mouse [21], 150 mg/kg/day; in the data set with mouse [22] it was 15 mg/kg/day; with rat [23] it was 75 mg/kg/day. Also, the LOAEL with rat [20] is > 30 mg/kg/day; in the data set with mouse [21], 150 mg/kg/day; in the data set on mouse [22], 15 mg/kg/day; with rat [23], 75 mg/kg/day. Besides, the NEL with rat [20] was < 15 mg/kg/day; in the data set on mouse [21] it was 75 mg/kg/day; with mouse [22], < 15 mg/kg/day; in the data set on rat [23] it was < 75 mg/kg/day. The NOAEL in the data set with rat [20] is ≥ 30 mg/kg/day; with mouse [21], 75 mg/kg/day; with mouse [22] it was < 15 mg/kg/day; in the data set with rat [23] it was < 75 mg/kg/day.
